In ChEMBL document CHEMBL6177931, “Exploring diverse frontiers: Advancements of bioactive 4-aminoquinoline-based molecular hybrids in targeted therapeutics and beyond” (Eur J Med Chem, 2024):
pEC50, pIC50: −log10 of the molar value.

What was measured:
Plasmodium falciparum [1] = experiment: Antiplasmodial activity against chloroquine sensitive Plasmodium falciparum 3D7 incubated for 72 hrs by SYBR green I based fluorescence assay; type: functional, organism-based; conditions: 3D7, 72 h
Plasmodium falciparum [2] = experiment: Potency index, ratio of chloroquine IC50 to test compound IC50 for antimalarial activity against Plasmodium falciparum Dd2; type: functional
Plasmodium falciparum [3] = experiment: Antimalarial activity against chloroquine sensitive sorbitol synchronized Plasmodium falciparum 3D7 assessed as inhibition of parasite growth incubated for 72 hrs by HRP2 ELISA based assay; type: functional, organism-based; conditions: 3D7, 72 h
Plasmodium falciparum [4] = experiment: Antimalarial activity against chloroquine resistant sorbitol synchronized Plasmodium falciparum W2 assessed as inhibition of parasite growth incubated for 72 hrs by HRP2 ELISA based assay; type: functional, organism-based; conditions: W2, 72 h
Plasmodium falciparum [5] = experiment: Antiplasmodial activity against chloroquine resistant Plasmodium falciparum K1 infected in human erythrocytes incubated for 48 hrs by lactate dehydrogenase assay; type: functional, organism-based; conditions: K1, Erythrocyte

## O=C(Cn1cc(COc2ccc(Br)cc2)nn1)NCCNc1ccnc2cc(Cl)ccc12
Plasmodium falciparum [1]
  pIC50: 7.40

## CC(C)Cc1ccc(C(C)C(=O)NCCNc2ccnc3cc(Cl)ccc23)cc1 (stereo not given)
Plasmodium falciparum [2]
  Ratio IC50: 4

## COc1cc(NC(C)CCCN)c2ncccc2c1 (stereo not given) [PRIMAQUINE]
Plasmodium falciparum [3]
  pIC50: 5.95
Plasmodium falciparum [4]
  pIC50: 6.74

## CCOC(=O)c1nn(CCNc2ccnc3cc(Cl)ccc23)c2c1C(c1ccc(CC)cc1)C(C#N)=C(N)O2 (stereo not given)
Plasmodium falciparum [5]
  pEC50: 7.70
